# According to US10029992B2, “Diaminotriazine compounds and their use as herbicides” (BASF SE, priority 2014, dated 2018):
# Experiments:
# ALOMY = experiment: Greenhouse experiment, pre-emergence treatment; assay type: in vivo, Alopecurus myosuroides; details: pre-emergence method
# From the text: (§1) The culture containers used were plastic flowerpots containing loamy sand with approximately 3.0% of humus as the substrate. The seeds of the test plants were sown separately for each species.
# (§2) For the pre-emergence treatment, the active ingredients, which had been suspended or emulsified in water, were applied directly after sowing by means of finely distributing nozzles. The containers were irrigated gently to promote germination and growth and subsequently covered with transparent plastic hoods until the plants had rooted. This cover caused uniform germination of the test plants, unless this had been impaired by the active ingredients.
# (§3) Depending on the species, the plants were kept at 10-25° C. or 20-35° C., respectively.
# (§4) The test period extended over 2 to 4 weeks. During this time, the plants were tended, and their response to the individual treatments was evaluated.
# (§5) Evaluation was carried out using a scale from 0 to 100. 100 means no emergence of the plants, or complete destruction of at least the aerial moieties, and 0 means no damage, or normal course of growth. A moderate herbicidal activity is given at values of at least 60, a good herbicidal activity is given at values of at least 70, and a very good herbicidal activity is given at values of at least 85.
# (§6) The plants used in the greenhouse experiments were of the following species: […]
# APESV = experiment: Greenhouse experiment, pre-emergence treatment; assay type: in vivo, Apera spica-venti; details: pre-emergence method
# From the text: as §1, §2, §3, §4, §5, §6
# ECHCG [1] = experiment: Greenhouse experiment, pre-emergence treatment; assay type: in vivo, Echinochloa crus-galli; details: pre-emergence method
# From the text: as §1, §2, §3, §4, §5, §6
# SETFA [2] = experiment: Greenhouse experiment, pre-emergence treatment; assay type: in vivo, Setaria faberi; details: pre-emergence method
# From the text: (§7) The seeds of the test plants were sown separately for each species. For the pre-emergence treatment, the active ingredients, which had been suspended or emulsified in water, were applied directly after sowing by means of finely distributing nozzles. The containers were irrigated gently to promote germination and growth and subsequently covered with transparent plastic hoods until the plants had rooted. This cover caused uniform germination of the test plants, unless this had been impaired by the active ingredients. Depending on the species, the plants were kept at 10-25° C. or 20-35° C., respectively. The test period extended over 2 to 4 weeks. During this time, the plants were tended, and their response to the individual treatments was evaluated. Evaluation was carried out using a scale from 0 to 100. 100 means no emergence of the plants, or complete destruction of at least the aerial moieties, and 0 means no damage, or normal course of growth. A moderate herbicidal activity is given at values of at least 60, a good herbicidal activity is given at values of at least 70, and a very good herbicidal activity is given at values of at least 85. […] [table]
# ECHCG [3] = experiment: Greenhouse experiment, post-emergence treatment; assay type: in vivo, Echinochloa crus-galli; details: post-emergence method, application rate 125 g/ha
# Protocol: (§8) The seeds of the test plants were sown separately for each species. […] For this purpose, the test plants were either sown directly and grown in the same containers, or they were first grown separately as seedlings and transplanted into the test containers a few days prior to treatment. Depending on the species, the plants were kept at 10-25° C. or 20-35° C., respectively. The test period extended over 2 to 4 weeks. During this time, the plants were tended, and their response to the individual treatments was evaluated. Evaluation was carried out using a scale from 0 to 100. 100 means no emergence of the plants, or complete destruction of at least the aerial moieties, and 0 means no damage, or normal course of growth. A moderate herbicidal activity is given at values of at least 60, a good herbicidal activity is given at values of at least 70, and a very good herbicidal activity is given at values of at least 85. […] [table]
# SETFA [4] = experiment: Greenhouse experiment, post-emergence treatment; assay type: in vivo, Setaria faberi; details: post-emergence method, application rate 125 g/ha
# Protocol: as §8
# AMARE [5] = experiment: Greenhouse experiment, post-emergence treatment; assay type: in vivo, Amaranthus retroflexus; details: post-emergence method, application rate 125 g/ha
# Protocol: as §8
# AMARE [6] = experiment: Greenhouse experiment, pre-emergence treatment; assay type: in vivo, Amaranthus retroflexus; details: pre-emergence method
# From the text: as §7
# ABUTH = experiment: Greenhouse experiment, post-emergence treatment; assay type: in vivo, Abutilon theophrasti; details: post-emergence method, application rate 125 g/ha
# Protocol: as §8
# SETVI = experiment: Greenhouse experiment, post-emergence treatment; assay type: in vivo, Setaria viridis; details: post-emergence method, application rate 63 g/ha
# Protocol: as §8
# CAPBP = experiment: Greenhouse experiment, post-emergence treatment; assay type: in vivo, Capsella bursa-pastoris; details: post-emergence method, application rate 63 g/ha
# Protocol: as §8
# STEME = experiment: Greenhouse experiment, post-emergence treatment; assay type: in vivo, Stellaria media; details: post-emergence method, application rate 63 g/ha
# Protocol: as §8
# ELEIN = experiment: Greenhouse experiment, post-emergence treatment; assay type: in vivo, Eleusine indica; details: post-emergence method, application rate 125 g/ha
# Protocol: as §8
# PHBPU = experiment: Greenhouse experiment, post-emergence treatment; assay type: in vivo, Pharbitis purpurea; details: post-emergence method, application rate 125 g/ha
# Protocol: as §8
compound,measurement,setting,value
COC(C)(C)c1nc(N)nc(Nc2c(F)cccc2Oc2cc(C)cc(C)c2)n1 [Example 36],herbicidal activity against ALOMY,ALOMY; application rate 0.25 kg/ha,good (a good herbicidal activity is given at values of at least 70)
same,herbicidal activity against APESV,APESV; application rate 0.25 kg/ha,very good (a very good herbicidal activity is given at values of at least 85)
same,herbicidal activity against APESV,APESV; application rate 1000 g/ha,very good (a very good herbicidal activity is given at values of at least 85)
same,herbicidal activity against ECHCG,ECHCG [1]; application rate 1000 g/ha,very good (a very good herbicidal activity is given at values of at least 85)
same,herbicidal activity against SEFTA,SETFA [2]; application rate 1000 g/ha,very good (a very good herbicidal activity is given at values of at least 85)
COc1cc(C)cc(Oc2cccc(F)c2Nc2nc(N)nc(C(C)(C)F)n2)c1 [Example 63],herbicidal activity against ECHCG,ECHCG [3],very good (a very good herbicidal activity is given at values of at least 85)
same,herbicidal activity against SETFA,SETFA [4],very good (a very good herbicidal activity is given at values of at least 85)
same,herbicidal activity against AMARE,AMARE [5],very good (a very good herbicidal activity is given at values of at least 85)
CC(C)(F)c1nc(N)nc(Nc2c(F)cccc2Oc2cc(F)cc(I)c2)n1 [Example 101],herbicidal activity against ALOMY,ALOMY; application rate 250 g/ha,good (a good herbicidal activity is given at values of at least 70)
same,herbicidal activity against ECHCG,ECHCG [1]; application rate 250 g/ha,very good (a very good herbicidal activity is given at values of at least 85)
same,herbicidal activity against SEFTA,SETFA [2]; application rate 250 g/ha,very good (a very good herbicidal activity is given at values of at least 85)
CC(C)Oc1cc(F)cc(Oc2cccc(F)c2Nc2nc(N)nc(C(C)(C)F)n2)c1 [Example 99],herbicidal activity against AMARE,AMARE [6]; application rate 500 g/ha,very good (a very good herbicidal activity is given at values of at least 85)
same,herbicidal activity against ALOMY,ALOMY; application rate 500 g/ha,very good (a very good herbicidal activity is given at values of at least 85)
same,herbicidal activity against ECHCG,ECHCG [1]; application rate 500 g/ha,very good (a very good herbicidal activity is given at values of at least 85)
CCOc1cc(OCC)cc(Oc2cccc(F)c2Nc2nc(N)nc(C(C)(C)F)n2)c1 [Example 68],herbicidal activity against ABUTH,ABUTH,very good (a very good herbicidal activity is given at values of at least 85)
same,herbicidal activity against ECHCG,ECHCG [3],very good (a very good herbicidal activity is given at values of at least 85)
same,herbicidal activity against SETFA,SETFA [4],very good (a very good herbicidal activity is given at values of at least 85)
CC(C)(F)c1nc(N)nc(Nc2c(F)cccc2Oc2cc(C(F)(F)F)cc(C(F)(F)F)c2)n1 [Example 52],herbicidal activity against SETVI,SETVI,very good (a very good herbicidal activity is given at values of at least 85)
same,herbicidal activity against CAPBP,CAPBP,very good (a very good herbicidal activity is given at values of at least 85)
same,herbicidal activity against STEME,STEME,very good (a very good herbicidal activity is given at values of at least 85)
CC(C)(F)c1nc(N)nc(Nc2c(F)cccc2Oc2ccccc2)n1 [Example 25],herbicidal activity against AMARE,AMARE [6]; application rate 0.25 kg/ha,very good (a very good herbicidal activity is given at values of at least 85)
same,herbicidal activity against ALOMY,ALOMY; application rate 0.25 kg/ha,very good (a very good herbicidal activity is given at values of at least 85)
same,herbicidal activity against APESV,APESV; application rate 0.25 kg/ha,very good (a very good herbicidal activity is given at values of at least 85)
CC(C)(F)c1nc(N)nc(Nc2c(F)cccc2Oc2cc(I)cc(I)c2)n1 [Example 67],herbicidal activity against ECHCG,ECHCG [3],good (a good herbicidal activity is given at values of at least 70)
same,herbicidal activity against SETFA,SETFA [4],good (a good herbicidal activity is given at values of at least 70)
COc1cc(Oc2cccc(F)c2Nc2nc(N)nc(C(C)(C)F)n2)cc(C(F)(F)F)c1 [Example 65],herbicidal activity against ABUTH,ABUTH,very good (a very good herbicidal activity is given at values of at least 85)
same,herbicidal activity against ECHCG,ECHCG [3],very good (a very good herbicidal activity is given at values of at least 85)
same,herbicidal activity against SETFA,SETFA [4],very good (a very good herbicidal activity is given at values of at least 85)
CC(C)(F)c1nc(N)nc(Nc2c(F)cccc2Oc2cc(Cl)cc(OC(F)(F)F)c2)n1 [Example 64],herbicidal activity against ELEIN,ELEIN,very good (a very good herbicidal activity is given at values of at least 85)
same,herbicidal activity against SETFA,SETFA [4],very good (a very good herbicidal activity is given at values of at least 85)
same,herbicidal activity against PHBPU,PHBPU,very good (a very good herbicidal activity is given at values of at least 85)
CC(C)(F)c1nc(N)nc(Nc2c(F)cccc2Oc2cc(Cl)cc(Br)c2)n1 [Example 58],herbicidal activity against ABUTH,ABUTH,very good (a very good herbicidal activity is given at values of at least 85)
same,herbicidal activity against SETFA,SETFA [4],very good (a very good herbicidal activity is given at values of at least 85)
same,herbicidal activity against AMARE,AMARE [5],very good (a very good herbicidal activity is given at values of at least 85)
